The results in this text go back to patent US20130296311A1, “INHIBITORS OF HCV NS5A” (PRESIDIO PHARMACEUTICALS, INC., priority 2010, published 2013).

In the test the test system is HCV 1b_Huh-Luc/Neo-ET cell line persistently expressing a bicistronic genotype 1b replicon in Huh 7 cells. In words: HCV replicon assay (luciferase readout, 72 h). It counts as cell-based, HCV genotype 1b. The conditions noted are these: Hepatitis C virus, Huh-7, 72 h, read-out: Inhibition of HCV genotype 1b. A digest of the protocol:
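Huh 7 cells carrying a bicistronic genotype 1b luciferase/neo replicon received compound in triplicate the day after plating. After 72 h, replicon levels were read as Bright-Glo luciferase activity, expressed as % of control; EC50 was fitted with a four-parameter logistic and determined several times.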
Background: A replicon is a self-replicating genome or part of one, used to study replication in cells.

The structures appear in SMILES notation.

As for `COC(=O)N[C@H](C(=O)N1CCC[C@H]1c1ncc(-c2ccc(C#Cc3ccc(-c4cnc([C@@H]5CCCN5C(=O)[C@@H](c5ccccc5)N5CCN(CCO)CC5)[nH]4)cc3)cc2)[nH]1)C(C)C` [Compound 958], the EC50 is less than 1 nM. With `CS(=O)(=O)N[C@@H](C(=O)N1CCC[C@H]1c1ncc(-c2ccc(C#Cc3ccc(-c4cnc([C@@H]5CCCN5C(=O)[C@@H](c5ccccc5)N5CCCC5)[nH]4)cc3)cc2)[nH]1)c1ccccc1` [Compound 230], the EC50 is less than 1 nM. With `O=C([C@@H](c1ccccc1)N1CCCCC1)N1CCC[C@H]1c1ncc(-c2ccc(C#Cc3ccc(-c4cnc([C@@H]5CCCN5C(=O)[C@@H](c5ccccc5)N5CCCCC5)[nH]4)cc3)cc2)[nH]1` [Compound 205], the EC50 is less than 1 nM. For the molecule `O=S(=O)(Cc1ccccc1)N1CCC[C@H]1c1ncc(-c2ccc(C#Cc3ccc4nc([C@@H]5CCCN5S(=O)(=O)Cc5ccccc5)[nH]c4c3)cc2)[nH]1` [Compound 1042], the EC50 was more than 1000 nM.
